Assay [1] has as its system PDE 4. Briefly: PDE 4 enzyme inhibition test (SPA). The class given is biochemical, human. Conditions: for activity on PDE 4 (in words): summary statement in description. How it is done:
The polymorphonucleate leukocytes (PMNs) were isolated from peripheral blood of healthy volunteers according to what described by Boyum A, Scand. J. Immunol., 1976, 5° suppl., 9). Shortly, the isolation of the PMNs was effected by Ficoll-Paque gradient centrifugation followed by sedimentation on dextrane and the erythrocyte contamination was eliminated by hypotonic lysis.
The human PMNs were resuspended in TRIS/HCl buffer (10 mM pH 7.8) containing MgCl2 (5mM), EGTA (4 mM), mercaptoethanol (5 mM), TRITON-X100 (1%), pepstatin A (1 μM), PMSF (100 μM) and leupeptin (1 μM), and homogenised by Polytron. The homogenate was centrifuged at 25,000×g for 30 minutes at 4° C. and the surnatant was used for the PDE 4 enzyme purification by ion exchange chromatography using the FPLC technique according to what described by Schudt C. et al., Naunyn-Schmidberg's Arch. Pharmacol., 1991, 334, 682. The surnatant was seeded on a UNO Q12 column (Bio-Rad) and the enzyme was eluted by sodium acetate gradient from 50mM to 1M. The fractions containing enzymatic activity were joined, dialysed against water and concentrated. The resulting PDE 4 enzyme was stored at −20° C. in the presence of ethylenglycole (30%) v/v) until use.
The enzyme activity was assessed with an Amersham kit based on the SPA technique (Scintillation Proximity Assay). The enzymatic reaction was effected in a total volume of 100 μl of TRIS/HCl buffer (50 mM, pH7.5), MgCl2 (8.3mM), EGTA (1.7 mM), cAMP (1μM) and [^3H]cAMP (˜100.000 dpm). The compounds of the invention and the reference ones were added at the wanted concentrations. As reference compounds 6,7 dimethoxy-4-(pyridin-4-ylmethyl)-2H-phthalazin-1 on (reference 1) and 6,7-dimethoxy-4-(piperidin-4-ylmethyl)-2H-phthalazin-1-one (reference 2) embraced by the general formula of the patent application EP-0 722 936 (in the name of Eisai) were used. The reaction was started by adding the enzyme (15 μg protein/ml) in 40 minutes at 30° C. and stopped with 50 μl of SPA particles suspension. The radioactivity of the particles was measured in β-emitting counter. The IC50 values were computed over 9 equidistant concentrations in logarithmic scale using a 4-parameters logistic function by a software.

Assay [2] relates to TNFα. Briefly: TNFα synthesis inhibition in LPS-stimulated human monocytes (ELISA). The class given is cell-based. The settings on record: Monocyte, LPS 1 ng/ml, 16 hours. How it is done: The monocytes were isolated from peripheral blood of healthy volunteers according the procedure of Schreek L., J. Natl. Cancer Inst., 1964, 32, 507. The monocytes and lymphocytes population was isolated by Ficoll gradient centrifugation, and the cells diluted at a density of 2.5×10^6 cells/ml in RPMI1640 incubation containing 1% inactivated bovine fetal serum, penicillin (100 U/ml) and streptomycin (100 U/ml) were placed in 24-wells plates (1 ml/well) and left to adhere for 1 hour at 37° C. with 5% CO2. At the end of the incubation the lymphocytes not adhering were removed by aspiration and the monocytes adhered to the plate were used in the next step.
The TNFα synthesis from human monocytes was measured according to the method of Barnette M. et al., Biochemical Pharmacology, 1996, 51, 949. The monocles were incubated for 1 hour with 1 ml of RPMI1640 incubation medium (1% inactivated bovine serum, 100 U/ml penicillin and streptomycin) containing different concentrations of the products according to the present invention or the carrier only for the controls. The TNFα synthesis from monocytes was induced by adding 1ng/ml of LPS (lipopolysaccharide of E. Coli) and after 16 hours of incubation at 37° C., 5% CO2, the incubation medium was removed, and the surnatant stored at −80° C. until the measurement. The TNFα levels were determined by ELISA test with an Amersham kit. The results are set forth in Table 2 as IC50 measured with the same calculation of example 67.
For orientation: An ELISA detects its analyte on a solid surface through an enzyme-linked reagent.

Assay [3] deals with T1, PDE 3 (Homo sapiens, UniProt Q14432).
T1 construct: Human platelets were prepared from platelet rich plasma (PRP); from tissue; host or cells: human platelets (platelet rich plasma, L. Sacco Hospital, Milan)
The assay can be described thus: PDE 3 enzyme inhibition test (SPA). The settings on record: at 10^-6 M; enzyme from human platelets. The class given is biochemical. How it is done: (§1) Human platelets were prepared from platelet rich plasma (PRP) obtained from the Hematological Dept. of the “L.Sacco” Hospital of Milan. The PRP was centrifuged at 2,200 rpm for 15 minutes at 4° C. and the pellet was suspended in lysis solution (15 ml; 155 mM NH4Cl, 10 mM KHCO3 and 0.1 mM Na2EDTA, pH=7.4) and incubated for 10 minutes on ice-bath to remove the erythrocyte contamination. After a centrifuging at 1,400 rpm for 10 minutes at 4° C., platelets were suspended in 10 ml of […], 5 mM KCl, 1 mM MgSO4, 10 mM glucose, 10 mM HEPES and 0.05 U/ml of hirudin (pH=7.4), and stored at −20° C. until homogenization and chromatography.
(§2) Before the chromatographic step, platelets were thawed and 50 ml of 20 mM TRIS (pH=6.5) containing 5 mM βmercapto-ethanol, 2 mM EDTA, 50mM sodium acetate and 50 μM PMSF (homogenization buffer) were added. The platelet suspension was then homogenized by a Polytron homogenizer (Polytron PT 1200) for 20 seconds. The homogenate was centrifuged at 14,500 rpm for 20 minutes at 4° C., and the supernatant was applied to a UNO Q12 column (Bio-Rad) pre-equilibrated with the PMSF. A flow rate of 4.5 ml/min was used throughout the ion exchange chromatography procedure. The column was washed with PMSF (180 ml) and PDE 3 and PDE 5 were eluted by sodium acetate linear gradient from 0.05M to 1M. The fractions containing enzymatic activity were joined, dialysed against water and concentrated 10 times by ultrafiltration. The resulting solution was stored at −20° C. in the presence of ethylenglycole (30%) v/v) until use.
(§3) The enzyme activity was assessed with an Amersham kit based on the SPA technique (Scintillation Proximity Assay). The enzymatic reaction was effected in a total volume of 100 μl of TRIS/HCl buffer (50 mM, pH7.5), MgCl2 (8.3 mM), EGTA (1.7 mM), cAMP (for PDE 3 assay) or cGMP (for PDE 5 assay) (1 μM), [^3H]cAMP or [^3H]cGMP (10 μl), and 10 μl of the compounds of the invention. The reaction was started by adding the enzyme (10 μl) incubated for 40 minutes at 30° C. and stopped by adding 50 μl of SPA beads. The radioactivity due to the particles was measured in β-emitting counter. The results are expressed as percent activity versus the control present in each test.

Assay [4] has as its target T2, PDE 5 (Homo sapiens, UniProt O76074).
T2 construct: Human platelets were prepared from platelet rich plasma (PRP); from tissue; host or cells: human platelets (platelet rich plasma, L. Sacco Hospital, Milan)
The assay can be described thus: PDE 5 enzyme inhibition test (SPA). Type of assay: biochemical. The settings on record: at 10^-6 M; enzyme from human platelets. As to the method:
as §1, §2, §3

Where [5] appears, read: at 10^-6 M, enzyme from human PMNs.
The mark [6] stands for this setting: at 10^-8 M, enzyme from human PMNs.
Where [7] appears, read: enzyme from human PMNs, 9 concentrations, 4-parameter logistic.
The mark [8] stands for this setting: at 10^-5 M, enzyme from human PMNs.

T1 sequence (Q14432 whole entry): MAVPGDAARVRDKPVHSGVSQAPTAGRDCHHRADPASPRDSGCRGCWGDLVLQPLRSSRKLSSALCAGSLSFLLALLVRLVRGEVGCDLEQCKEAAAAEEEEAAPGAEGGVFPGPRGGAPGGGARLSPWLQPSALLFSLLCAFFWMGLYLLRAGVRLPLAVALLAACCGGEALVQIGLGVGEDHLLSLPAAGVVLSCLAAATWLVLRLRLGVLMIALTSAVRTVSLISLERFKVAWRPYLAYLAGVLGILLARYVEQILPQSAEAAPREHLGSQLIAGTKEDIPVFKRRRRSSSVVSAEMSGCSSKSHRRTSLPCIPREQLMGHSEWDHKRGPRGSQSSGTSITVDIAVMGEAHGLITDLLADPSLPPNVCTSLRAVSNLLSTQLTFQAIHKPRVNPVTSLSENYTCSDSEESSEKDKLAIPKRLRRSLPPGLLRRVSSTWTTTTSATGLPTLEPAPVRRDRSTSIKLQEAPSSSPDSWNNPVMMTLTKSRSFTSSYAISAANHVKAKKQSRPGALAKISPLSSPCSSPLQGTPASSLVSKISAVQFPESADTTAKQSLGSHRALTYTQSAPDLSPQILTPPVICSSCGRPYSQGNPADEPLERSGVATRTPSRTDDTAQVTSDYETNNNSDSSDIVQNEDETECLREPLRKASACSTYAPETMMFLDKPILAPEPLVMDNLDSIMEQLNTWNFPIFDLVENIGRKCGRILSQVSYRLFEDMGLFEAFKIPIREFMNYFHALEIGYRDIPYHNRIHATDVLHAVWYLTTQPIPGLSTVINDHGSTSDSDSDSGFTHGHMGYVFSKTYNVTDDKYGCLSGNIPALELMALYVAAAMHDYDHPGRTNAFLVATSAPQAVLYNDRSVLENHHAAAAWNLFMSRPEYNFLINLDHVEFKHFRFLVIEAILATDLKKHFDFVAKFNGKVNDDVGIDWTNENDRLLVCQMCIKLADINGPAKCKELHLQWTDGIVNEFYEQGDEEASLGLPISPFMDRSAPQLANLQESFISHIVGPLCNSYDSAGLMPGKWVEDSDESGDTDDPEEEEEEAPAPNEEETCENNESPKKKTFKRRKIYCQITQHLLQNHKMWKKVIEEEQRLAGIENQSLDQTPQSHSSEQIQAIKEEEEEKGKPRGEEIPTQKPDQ

On to `COc1ccc2c(Cc3c(Cl)cncc3Cl)nncc2c1OC1CCCC1` [Compound 1, 5-Cyclopentyloxy-1-(3,5-dichloropyridin-4-ylmethyl)-6-methoxy-phthalazine], for which the results for the “PDE 4 % inhibition” value in assay [1] (setting [5]) and in assay [1] (setting [6]) were 84% and 19%, respectively. The IC50 was found to be 0.0531 ± 0.01 µM in assay [1] (setting [7]) and 0.254 ± 0.084 µM in assay [2]. For the same molecule, the inhibition at 1 µM in assay [3] was found to be 0%; in assay [4] it was 20%.
On to `COc1ccc2c(Cc3c(Cl)cncc3Cl)n[n+]([O-])cc2c1OC1CCCC1` [Compound 2, 5-Cyclopentyloxy-1-(3,5-dichloropyridin-4-ylmethyl)-6-methoxy-phthalazin-3-oxide], for which the “PDE 4 % inhibition” value stood at 97% in assay [1] (setting [8]), 94% in assay [1] (setting [5]) and 25% in assay [1] (setting [6]). For the same molecule, the IC50 worked out at 0.0424 ± 0.005 µM in assay [1] (setting [7]) and 0.139 ± 0.055 µM in assay [2]. Further, the inhibition at 1 µM turned out to be 20% in assay [3] and 4% in assay [4].
As to `FC(F)Oc1ccc2c(Cc3c(Cl)cncc3Cl)nncc2c1OC1CCCC1` [Compound 3, 5-Cyclopentyloxy-1-(3,5-dichloropyridin-4-yl-methyl)-6-difluoromethoxy-phthalazine], the figures for the “PDE 4 % inhibition” value in assay [1] (setting [5]) and in assay [1] (setting [6]) were 100% and 34%, respectively. The IC50 in assay [1] (setting [7]) is 0.0389 ± 0.007 µM; in assay [2], 0.167 ± 0.079 µM. Moreover, the inhibition at 1 µM in assay [3] is 5%; in assay [4], 14%.
As to `COc1ccc2c(Nc3c(Cl)cncc3Cl)nncc2c1OC1CCCC1` [Compound 4, 5-Cyclopentyloxy-1-(3,5-dichloropyridin-4-ylamino)-6-methoxy-phthalazine], the “PDE 4 % inhibition” value in assay [1] (setting [5]) is 73%. Further, the figures for the IC50 in assay [1] (setting [7]) and in assay [2] were 0.0589 ± 0.005 µM and 0.187 ± 0.035 µM, respectively. The inhibition at 1 µM was determined as 8% in assay [3] and 19% in assay [4].
For the molecule `COc1ccc2c(Cc3c(Cl)cncc3Cl)nncc2c1OC1Cc2ccccc2C1` [Compound 5, 1-(3,5-Dichloro-pyridin-4-methyl)5-(indan-2-yloxy)-6-methoxy-2H-phthalazine], the “PDE 4 % inhibition” value in assay [1] (setting [5]) is reported as 80%; in assay [1] (setting [6]) it was 33%. Moreover, the IC50 was 0.0295 ± 0.004 µM in assay [1] (setting [7]) and 0.252 ± 0.12 µM in assay [2].
`COc1ccc2c(Cc3c(Cl)cncc3Cl)nncc2c1OCCCCCc1ccccc1` [Compound 6, 1-(3,5-Dichloro-pyridin-4-methyl)-5-(5-phenyl-pentyl-1-oxy)-6-methoxy-phthalazine]: the figures for the “PDE 4 % inhibition” value in assay [1] (setting [5]) and in assay [1] (setting [6]) were 79% and 27%, respectively. The IC50 in assay [1] (setting [7]) came to 0.0568 ± 0.009 µM; in assay [2], 0.0835 ± 0.024 µM. Moreover, the inhibition at 1 µM came out at 25% in assay [3] and 20% in assay [4].
As to `COc1cc2cnnc(Cc3c(Cl)cncc3Cl)c2cc1OC1CCCC1` [Compound 7, 7-Cyclopentyloxy-1-(3,5-dichloropyridin-4-ylmethyl)-6-methoxy-phthalazine], the midpoint of inhibition in assay [1] (setting [7]), the IC50, lay at 0.186 ± 0.043 µM.
Turning to `COc1cc2c(C)nnc(Cc3c(Cl)cncc3Cl)c2cc1OC1CCCC1` [Compound 9, 7-Cyclopentyloxy-1-(3,5-dichloro-pyridin-4-ylmethyl)-4-methyl-6-methoxy-phthalazine], the IC50 in assay [1] (setting [7]) stood at 0.146 ± 0.038 µM.
Regarding `CCc1nnc(Cc2c(Cl)cncc2Cl)c2cc(OC3CCCC3)c(OC)cc12` [Compound 10, 7-Cyclopentyloxy-1-(3,5-dichloro-pyridin-4-ylmethyl)-4-ethyl-6-methoxy-phthalazine], the “PDE 4 % inhibition” value is reported as 93% in assay [1] (setting [8]), 80% in assay [1] (setting [5]) and 33% in assay [1] (setting [6]). For the same molecule, the IC50 was 0.0749 ± 0.008 µM in assay [1] (setting [7]) and 0.259 ± 0.086 µM in assay [2]. Further, the inhibition at 1 µM in assay [3] and in assay [4] was 20% throughout.
Regarding `COc1ccc2c(Cc3c(Cl)cncc3Cl)nncc2c1OC1CCOC1` (stereo not drawn) [Compound 13], inhibition in assay [1] (setting [7]) was half-maximal at 0.153 ± 0.085 µM (IC50). Further, the inhibition at 1 µM in assay [3] is 4%; in assay [4], 2%.
With `COc1ccc2c(Cc3c(Cl)cncc3Cl)n[n+]([O-])cc2c1OC1CCOC1` (stereo not drawn) [Compound 14], the results for the 50% inhibitory concentration (IC50) in assay [1] (setting [7]) and in assay [2] were 0.298 ± 0.037 µM and 0.389 ± 0.047 µM, respectively.
Molecule `FC(F)Oc1ccc2c(Cc3c(Cl)cncc3Cl)nncc2c1OC1CCOC1` (stereo not drawn) [Compound 15, 1-(3,5-Dichloro-pyridin-4-ylmethyl)-6-difluoromethoxy-5-(tetrahydro-furan-3-yloxy)-phthalazine] displayed an IC50 in assay [1] (setting [7]) of 0.282 ± 0.036 µM. Also, the inhibition at 1 µM worked out at 11% in assay [3] and 0% in assay [4].
In turn, `COc1ccc2c(Cc3c(Cl)c[n+]([O-])cc3Cl)n[n+]([O-])cc2c1OC1CCOC1` (stereo not drawn) [Compound 19] returned an IC50 in assay [1] (setting [7]) of 0.206 ± 0.124 µM. In addition, in assay [4], the inhibition at 1 µM was determined as 8%.
In turn, `COc1cc2c(Cc3ccncc3)n[nH]c(=O)c2cc1OC` [Reference 1, 6,7-dimethoxy-4-(pyridin-4-yl-methyl)-2H-phthalazin-1-one, reference compound] showed an IC50 in assay [1] (reference compounds) of over 100 µM. For the same molecule, in assay [1], the “activity on PDE 4 (in words)” value is reported as “did not show to be active”.
In assay [1] (reference compounds), `COc1cc2c(CC3CCNCC3)n[nH]c(=O)c2cc1OC` [Reference 2, 6,7-dimethoxy-4-(piperidin-4yl-methyl)-2H-phthalazin-1-one, reference compound] yielded an IC50 of over 100 µM. The “activity on PDE 4 (in words)” value in assay [1] is given as “did not show to be active”.

The IC50 is the concentration that gives 50% inhibition. High values mean a need for much substance, low ones inhibition by little substance. What is called inhibition is the change of the read-out against control, counted positive when it falls. Read a high inhibition as a response far below the control.

The values above are taken from patent US6589951B1, “Phthalazine derivatives as phosphodiesterase 4 inhibitors” (Zambon Group S.p.A., priority 1997, dated 2003).
